Measured values as given in patent publication US12311019B2, “Vaccine composition and uses thereof” (Imugene Limited, priority 2018, dated 2025).
Entries after “also recorded” stand apart in the source; their conditions may differ. Values belong to the sequence of their own block, whether it stands above or below them.

Experiments:
[1] = test system: PD1 protein from other species—mouse, rat, Rhesus monkey, Cynomolgus monkey and canine; assay: Cross-reactivity ELISAs, summary over species; assay type: binding; conditions: for cross-reactivity of affinity-purified anti-PD1 antibodies from animals immunised with the peptide with PD1 protein from other species: mouse, rat, Rhesus monkey, Cynomolgus monkey and canine
Procedure: To assess whether or not the anti-human PD1 antibodies raised in the immunised rabbits would cross-react with PD1 of other species, the anti-PD1 antisera from the Examples 7 and 8, above, were screened in an ELISA assay for binding to mouse, rhesus monkey, canine and rat PD1 proteins.
A further ELISA assay was performed to make a direct comparison of the cross-reactivity of anti-human PD1 antibodies raised in the immunised rabbits (Rabbits 1 and 2) to PD1 proteins of different species.

[2] = target: PD1 (SEQ ID NO:1) conjugated to a His tag (Homo sapiens, UniProt Q15116); assay: ELISA of anti-PD1 antibody titre in immunised rabbits on PD1 coated plates; assay type: binding; conditions: for anti-PD1 antibody response / titre raised in immunised rabbits (in words): rabbits immunised with KLH-conjugated peptide in Freund's adjuvant
Procedure: Approximately 250-500 μg of each KLH-conjugated peptide fragment was diluted with saline and subsequently emulsified in complete or incomplete Freund's adjuvant at a mass ratio of 1:1. The emulsified solution was administered to rabbits by subcutaneous injection around the shoulders and intramuscular injection into the legs in accordance with the following immunization protocol: • i. Day 00—Serum collected 2 ml (for 0.5-1.0 ml pre-immune serum; • ii. Day 01—1st-immunization, complete Freund's adjuvant, 500 μg peptide fragment; • iii. Day 15—2nd-immunization, complete Freund's adjuvant, 500 μg peptide fragment; • iv. Day 29—3rd-immunization, incomplete Freund's adjuvant, 250 μg peptide fragment; • v. Day 35—Serum collected, 2-3 ml for assessment of anti-PD1 antibody titre by ELISA; • vi. Day 36—4th-immunization, incomplete Freund's adjuvant, 250 μg peptide fragment (optional); • vii. Day 43—5th-immunization, incomplete Freund's adjuvant. 250 μg peptide fragment (optional); • viii. Day 50—6th-immunization, incomplete Freund's adjuvant 250 μg peptide fragment (optional); • ix. Day 57—7th-immunization, incomplete Freund's adjuvant 250 μg peptide fragment (optional); • x. Day 63—Blood sample is collected from the immunised rabbits. B. Assessment of Anti-PDJ Antibody Titre in Immunised Rabbits by ELISA
An enzyme-linked immunosorbent assays (ELISA) was used to measure the anti-PD1 antibody titre in the blood samples collected from the immunized rabbits. Briefly, microtiter plates were coated with PD1 (SEQ ID NO:1) conjugated to a His tag. After blocking the wells of the microtiter plates with BSA to minimise non-specific binding, diluted sera from the immunized rabbits were added to the plates and incubated on a shaker for around 1 hr at 20° C. (or alternatively overnight at 4° C.). The plates were then washed four times with PBS/0.1% v/v Tween 20 and excess wash buffer was removed from each well.
Approximately 100 μL of a horseradish peroxidase-labeled anti-rabbit antibody was then added to each well and incubated for around 1 hr at 20° C. The plates were then washed four times with PBS/0.1% v/v Tween 20 and excess wash buffer was removed from each well. The plates were then washed twice with PBS only, to remove traces of Tween remaining from the washing buffer.
To detect the presence of horseradish peroxidase-labeled, anti-rabbit antibody, 100 μL of 1-Step™ ABTS (Pierce Cat. No. 37615) was added to each well and incubated for up to 45 min at 20° C. The absorbance of any colour change in each well was read using a microtitre Titertek Multiskan MC plate reader in the dual wavelength mode at 405 nm against a reference wavelength of 492 nm and compared to appropriate negative controls, such as the colour change observed in a well to which no PD1 was added, to which no immunised rabbit sera was added and/or to which no horseradish peroxidase-labeled, anti-rabbit antibody was added.
Approximately 250-500 μg of each KLH-conjugated fusion peptides were diluted with saline and subsequently emulsified in complete or incomplete Freund's adjuvant at a mass ratio of 1:1. The emulsified solutions were administered to rabbits by subcutaneous injection around the shoulders and intramuscular injection into the legs in accordance with the immunization protocol of Example 2, above.
An enzyme-linked immunosorbent assays (ELISA) was used to measure the anti-PD1 antibody titre in the blood samples collected from the immunized rabbits, in accordance with the methodology set out in Example 2 above. The absorbance readings from the ELISA assay are shown in Table 8, below (SEQ TD NO:9 is underlined): […]

PD1 (SEQ ID NO:1) conjugated to a His tag, sequence (Q15116 25-170): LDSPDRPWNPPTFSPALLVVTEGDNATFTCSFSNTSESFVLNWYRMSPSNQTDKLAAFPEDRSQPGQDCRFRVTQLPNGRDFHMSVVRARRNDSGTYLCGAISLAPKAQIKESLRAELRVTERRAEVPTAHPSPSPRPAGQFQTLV

Sequence: GAISLAPKAQIK (listed as Homo sapiens) [SEQ ID NO:43]
- species of greatest cross-reactivity of the anti-PD1 antibodies raised with the peptide [1]: greatest cross-reactivity to PD1 protein from Rhesus and Cynomolgus monkeys
- cross-reactivity of affinity-purified anti-PD1 antibodies from animals immunised with the peptide with PD1 protein from other species [1]: at least some cross-reactivity
- anti-PD1 antibody response / titre raised in immunised rabbits (in words) [2]: raising an anti-PD1 antibody response; also recorded: sufficient anti-PD1 antibody titres

Sequence: YLSGAISLAPKA (listed as Homo sapiens) [SEQ ID NO:61]
- species of greatest cross-reactivity of the anti-PD1 antibodies raised with the peptide [1]: greatest cross-reactivity to PD1 protein from Rhesus and Cynomolgus monkeys
- cross-reactivity of affinity-purified anti-PD1 antibodies from animals immunised with the peptide with PD1 protein from other species [1]: at least some cross-reactivity
- anti-PD1 antibody response / titre raised in immunised rabbits (in words) [2]: raising an anti-PD1 antibody response; also recorded: sufficient anti-PD1 antibody titres

Sequence: LDSPDRPWNPPT (listed as Homo sapiens) [SEQ ID NO:10]
- species of greatest cross-reactivity of the anti-PD1 antibodies raised with the peptide [1]: greatest cross-reactivity to PD1 protein from Rhesus and Cynomolgus monkeys
- cross-reactivity of affinity-purified anti-PD1 antibodies from animals immunised with the peptide with PD1 protein from other species [1]: at least some cross-reactivity
- anti-PD1 antibody response / titre raised in immunised rabbits (in words) [2]: raising an anti-PD1 antibody response; also recorded: sufficient anti-PD1 antibody titres

Sequence: NWYRMSPSNQTD (listed as Homo sapiens) [SEQ ID NO:59]
- species of greatest cross-reactivity of the anti-PD1 antibodies raised with the peptide [1]: greatest cross-reactivity to PD1 protein from Rhesus and Cynomolgus monkeys
- cross-reactivity of affinity-purified anti-PD1 antibodies from animals immunised with the peptide with PD1 protein from other species [1]: at least some cross-reactivity
- anti-PD1 antibody response / titre raised in immunised rabbits (in words) [2]: raising an anti-PD1 antibody response; also recorded: sufficient anti-PD1 antibody titres

- anti-PD1 antibody response / titre raised in immunised rabbits (in words) [2]: Anti-PD1 antibodies were also raised
Sequence: GAISLAPKAQIKGWFLDSPDRPWN (listed as Homo sapiens) [SEQ ID NO:57]
- species of greatest cross-reactivity of the anti-PD1 antibodies raised with the peptide [1]: greatest cross-reactivity to PD1 protein from Rhesus and Cynomolgus monkeys
- cross-reactivity of affinity-purified anti-PD1 antibodies from animals immunised with the peptide with PD1 protein from other species [1]: at least some cross-reactivity

Sequence: FPEDRSQPGQDC (listed as Homo sapiens) [SEQ ID NO:29]
- species of greatest cross-reactivity of the anti-PD1 antibodies raised with the peptide [1]: greatest cross-reactivity to PD1 protein from Rhesus and Cynomolgus monkeys
- cross-reactivity of affinity-purified anti-PD1 antibodies from animals immunised with the peptide with PD1 protein from other species [1]: at least some cross-reactivity
- anti-PD1 antibody response / titre raised in immunised rabbits (in words) [2]: raising an anti-PD1 antibody response; also recorded: sufficient anti-PD1 antibody titres

Sequence: LRVTERRAEVPT (listed as Homo sapiens) [SEQ ID NO:49]
- species of greatest cross-reactivity of the anti-PD1 antibodies raised with the peptide [1]: greatest cross-reactivity to PD1 protein from Rhesus and Cynomolgus monkeys
- cross-reactivity of affinity-purified anti-PD1 antibodies from animals immunised with the peptide with PD1 protein from other species [1]: at least some cross-reactivity
- anti-PD1 antibody response / titre raised in immunised rabbits (in words) [2]: raising an anti-PD1 antibody response; also recorded: sufficient anti-PD1 antibody titres

Sequence: GWFLDSPDRPWN (listed as Homo sapiens) [SEQ ID NO:9]
- species of greatest cross-reactivity of the anti-PD1 antibodies raised with the peptide [1]: greatest cross-reactivity to PD1 protein from Rhesus and Cynomolgus monkeys
- cross-reactivity of affinity-purified anti-PD1 antibodies from animals immunised with the peptide with PD1 protein from other species [1]: at least some cross-reactivity
- anti-PD1 antibody titre compared to the other peptide sequences ([2]; immunised rabbits): highest anti-PD1 antibody titre; also recorded: higher anti-PD1 antibody titre
- anti-PD1 antibody response / titre raised in immunised rabbits (in words) [2]: raising an anti-PD1 antibody response; also recorded: sufficient anti-PD1 antibody titres

Sequence: FSPALLVVTEGD (listed as Homo sapiens) [SEQ ID NO:14]
- species of greatest cross-reactivity of the anti-PD1 antibodies raised with the peptide [1]: greatest cross-reactivity to PD1 protein from Rhesus and Cynomolgus monkeys
- cross-reactivity of affinity-purified anti-PD1 antibodies from animals immunised with the peptide with PD1 protein from other species [1]: at least some cross-reactivity
- anti-PD1 antibody response / titre raised in immunised rabbits (in words) [2]: raising an anti-PD1 antibody response; also recorded: sufficient anti-PD1 antibody titres
